According to ChEMBL document CHEMBL1909046, “DrugMatrix in vitro pharmacology data”:

Key:
[1] = biological target: Tyrosine-protein kinase Fyn (Homo sapiens, UniProt P06241); test: biochemical; type: cell-based, Insect cells;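 also: enzymatic inhibition of Fyn kinase activity measured with Poly(Glu:Tyr) as the phosphorylation substrate; in other assays of this panel Not Active means under 50% inhibition at 10 µM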
[2] = biological target: T1, Muscarinic acetylcholine receptor M5 (Homo sapiens, UniProt P08912); type: cell membranes, CHO-K1, Membrane; conditions: cho-k1; also: in other assays of this panel Not Active means under 50% inhibition at 10 µM
T1 sequence (P08912 whole entry): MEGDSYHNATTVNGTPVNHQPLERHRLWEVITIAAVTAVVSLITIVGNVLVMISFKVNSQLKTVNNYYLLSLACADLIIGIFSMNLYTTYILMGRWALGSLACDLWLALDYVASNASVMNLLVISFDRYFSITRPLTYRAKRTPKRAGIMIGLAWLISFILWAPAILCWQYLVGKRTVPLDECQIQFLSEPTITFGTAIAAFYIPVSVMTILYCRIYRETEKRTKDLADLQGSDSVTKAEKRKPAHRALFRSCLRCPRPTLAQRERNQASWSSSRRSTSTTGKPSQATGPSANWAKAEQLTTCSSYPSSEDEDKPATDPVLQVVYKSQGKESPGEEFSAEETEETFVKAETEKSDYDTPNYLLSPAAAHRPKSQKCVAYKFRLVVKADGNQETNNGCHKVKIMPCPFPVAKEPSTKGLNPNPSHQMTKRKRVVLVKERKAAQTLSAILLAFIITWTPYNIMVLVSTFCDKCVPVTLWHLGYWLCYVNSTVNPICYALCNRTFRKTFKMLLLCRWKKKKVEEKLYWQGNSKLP

[3] = DRUGMATRIX: GABAA, Chloride Channel, TBOB radioligand binding (ligand: [3H] TBOB); type: cell membranes, Rattus norvegicus, Wistar, Cerebral cortex, Membrane; conditions: Not Active = under 50% inhibition at 10 µM
[4] = biological target: Kappa-type opioid receptor (Homo sapiens, UniProt P41145); test: DRUGMATRIX: Opiate kappa (OP2, KOP) radioligand binding (ligand: [3H] Diprenorphine); type: cell membranes, HEK293, Membrane; conditions: hek293; Not Active = under 50% inhibition at 10 µM
Chain of Kappa-type opioid receptor (P41145 whole entry): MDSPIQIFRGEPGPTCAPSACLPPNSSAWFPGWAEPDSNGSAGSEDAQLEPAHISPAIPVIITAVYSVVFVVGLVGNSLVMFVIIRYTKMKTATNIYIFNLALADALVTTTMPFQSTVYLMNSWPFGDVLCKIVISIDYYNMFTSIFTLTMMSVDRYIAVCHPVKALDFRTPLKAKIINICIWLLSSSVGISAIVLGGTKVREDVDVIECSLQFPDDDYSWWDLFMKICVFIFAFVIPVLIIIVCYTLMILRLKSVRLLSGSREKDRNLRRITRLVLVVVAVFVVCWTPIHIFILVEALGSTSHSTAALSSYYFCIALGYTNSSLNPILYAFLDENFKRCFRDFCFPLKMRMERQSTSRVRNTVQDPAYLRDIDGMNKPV

[5] = biological target: T2, 5-hydroxytryptamine receptor 1A (Rattus norvegicus, UniProt P19327); type: cell membranes, CHO-K1, Membrane; conditions: cho-k1; also: in other assays of this panel Not Active means under 50% inhibition at 10 µM
T2 sequence (P19327 whole entry): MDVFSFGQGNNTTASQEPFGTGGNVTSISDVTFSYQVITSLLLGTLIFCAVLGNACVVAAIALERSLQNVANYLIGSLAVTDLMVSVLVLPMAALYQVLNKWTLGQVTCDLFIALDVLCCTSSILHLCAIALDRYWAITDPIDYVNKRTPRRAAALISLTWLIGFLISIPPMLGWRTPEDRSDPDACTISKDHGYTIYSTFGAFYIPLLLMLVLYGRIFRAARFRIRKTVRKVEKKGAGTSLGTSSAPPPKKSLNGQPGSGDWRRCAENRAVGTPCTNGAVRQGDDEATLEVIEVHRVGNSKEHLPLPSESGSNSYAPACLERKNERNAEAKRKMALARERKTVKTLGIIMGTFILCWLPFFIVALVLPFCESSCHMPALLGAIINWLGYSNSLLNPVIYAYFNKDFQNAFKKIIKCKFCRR

Melanocortin receptor 3 = Melanocortin receptor 3 (Homo sapiens, UniProt P41968); type: cell membranes, Membrane; conditions: hek293; also: in other assays of this panel Not Active means under 50% inhibition at 10 µM
Chain of Melanocortin receptor 3 (P41968 whole entry): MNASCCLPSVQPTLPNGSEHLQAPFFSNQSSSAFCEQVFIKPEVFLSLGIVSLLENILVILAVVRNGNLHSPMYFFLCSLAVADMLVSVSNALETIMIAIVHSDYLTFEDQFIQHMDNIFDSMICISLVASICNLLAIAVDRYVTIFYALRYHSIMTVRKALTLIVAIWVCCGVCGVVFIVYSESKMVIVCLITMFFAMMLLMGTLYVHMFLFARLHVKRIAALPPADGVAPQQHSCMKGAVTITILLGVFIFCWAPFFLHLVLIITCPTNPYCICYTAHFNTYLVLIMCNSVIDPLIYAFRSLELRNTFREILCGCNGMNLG

Adenosine receptor A3 = biological target: T3, Adenosine receptor A3 (Homo sapiens, UniProt P0DMS8); type: cell membranes, CHO-K1, Membrane; conditions: cho-k1
T3 sequence (P0DMS8 whole entry): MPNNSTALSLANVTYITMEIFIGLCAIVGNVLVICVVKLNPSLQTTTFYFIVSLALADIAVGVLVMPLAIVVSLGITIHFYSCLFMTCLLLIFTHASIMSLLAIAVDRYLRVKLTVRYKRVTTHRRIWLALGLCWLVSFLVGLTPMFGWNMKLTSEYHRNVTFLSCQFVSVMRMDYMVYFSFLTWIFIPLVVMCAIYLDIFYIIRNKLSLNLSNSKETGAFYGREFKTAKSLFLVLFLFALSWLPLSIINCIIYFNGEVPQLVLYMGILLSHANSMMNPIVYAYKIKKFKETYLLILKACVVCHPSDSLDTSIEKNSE

[6] = DRUGMATRIX: ATPase, Na+/K+ enzyme inhibition (substrate: ATP); type: tissue-based, Sus scrofa, Heart; conditions: Not Active = under 50% inhibition at 10 µM
[7] = biological target: Beta-2 adrenergic receptor (Homo sapiens, UniProt P07550); test: DRUGMATRIX: Adrenergic beta2 radioligand binding (ligand: [3H] CGP-12177); type: cell membranes, Membrane; conditions: cho; Not Active = under 50% inhibition at 10 µM
Chain of Beta-2 adrenergic receptor (P07550 whole entry): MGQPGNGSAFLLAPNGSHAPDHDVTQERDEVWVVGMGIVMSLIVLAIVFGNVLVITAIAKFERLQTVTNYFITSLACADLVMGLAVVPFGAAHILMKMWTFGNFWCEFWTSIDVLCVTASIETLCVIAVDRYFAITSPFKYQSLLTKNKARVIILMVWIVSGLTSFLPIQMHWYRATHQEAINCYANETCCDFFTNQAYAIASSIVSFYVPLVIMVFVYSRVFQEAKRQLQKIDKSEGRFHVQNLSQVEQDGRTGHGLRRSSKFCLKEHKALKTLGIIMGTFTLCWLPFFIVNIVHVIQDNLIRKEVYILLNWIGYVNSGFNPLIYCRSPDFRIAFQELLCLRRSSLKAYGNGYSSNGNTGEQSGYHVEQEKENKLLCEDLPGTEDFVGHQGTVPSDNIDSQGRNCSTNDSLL

[8] = biological target: T4, Cysteinyl leukotriene receptor 1 (Homo sapiens, UniProt Q9Y271); type: cell membranes, CHO-K1, Membrane; conditions: cho-k1; also: in other assays of this panel Not Active means under 50% inhibition at 10 µM
T4 sequence (Q9Y271 whole entry): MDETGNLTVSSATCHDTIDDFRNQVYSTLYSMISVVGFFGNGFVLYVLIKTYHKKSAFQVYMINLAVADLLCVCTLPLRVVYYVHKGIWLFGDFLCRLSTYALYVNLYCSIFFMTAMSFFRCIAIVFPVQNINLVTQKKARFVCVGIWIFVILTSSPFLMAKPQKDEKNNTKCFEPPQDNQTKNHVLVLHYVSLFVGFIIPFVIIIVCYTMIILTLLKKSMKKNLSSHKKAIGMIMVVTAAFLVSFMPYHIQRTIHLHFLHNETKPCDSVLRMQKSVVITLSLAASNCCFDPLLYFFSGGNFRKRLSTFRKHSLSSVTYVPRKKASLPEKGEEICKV

[9] = DRUGMATRIX: Potassium Channel [KATP] radioligand binding (ligand: [3H] Glyburide); type: cell membranes, Membrane; conditions: hit-t15; Not Active = under 50% inhibition at 10 µM
Carbonic anhydrase 2 = Carbonic anhydrase 2 (Homo sapiens, UniProt P00918); test: DRUGMATRIX: Carbonic Anhydrase II enzyme inhibition (substrate: 4-Nitrophenyl acetate (4-NPA)); type: tissue-based, Erythrocyte; conditions: erythrocyte; Not Active = under 50% inhibition at 10 µM
[10] = biological target: Vascular endothelial growth factor receptor 1 (Homo sapiens, UniProt P17948); type: cell-based; conditions: huvec; also: in other assays of this panel Not Active means under 50% inhibition at 10 µM
Chain of Vascular endothelial growth factor receptor 1 (P17948 whole entry): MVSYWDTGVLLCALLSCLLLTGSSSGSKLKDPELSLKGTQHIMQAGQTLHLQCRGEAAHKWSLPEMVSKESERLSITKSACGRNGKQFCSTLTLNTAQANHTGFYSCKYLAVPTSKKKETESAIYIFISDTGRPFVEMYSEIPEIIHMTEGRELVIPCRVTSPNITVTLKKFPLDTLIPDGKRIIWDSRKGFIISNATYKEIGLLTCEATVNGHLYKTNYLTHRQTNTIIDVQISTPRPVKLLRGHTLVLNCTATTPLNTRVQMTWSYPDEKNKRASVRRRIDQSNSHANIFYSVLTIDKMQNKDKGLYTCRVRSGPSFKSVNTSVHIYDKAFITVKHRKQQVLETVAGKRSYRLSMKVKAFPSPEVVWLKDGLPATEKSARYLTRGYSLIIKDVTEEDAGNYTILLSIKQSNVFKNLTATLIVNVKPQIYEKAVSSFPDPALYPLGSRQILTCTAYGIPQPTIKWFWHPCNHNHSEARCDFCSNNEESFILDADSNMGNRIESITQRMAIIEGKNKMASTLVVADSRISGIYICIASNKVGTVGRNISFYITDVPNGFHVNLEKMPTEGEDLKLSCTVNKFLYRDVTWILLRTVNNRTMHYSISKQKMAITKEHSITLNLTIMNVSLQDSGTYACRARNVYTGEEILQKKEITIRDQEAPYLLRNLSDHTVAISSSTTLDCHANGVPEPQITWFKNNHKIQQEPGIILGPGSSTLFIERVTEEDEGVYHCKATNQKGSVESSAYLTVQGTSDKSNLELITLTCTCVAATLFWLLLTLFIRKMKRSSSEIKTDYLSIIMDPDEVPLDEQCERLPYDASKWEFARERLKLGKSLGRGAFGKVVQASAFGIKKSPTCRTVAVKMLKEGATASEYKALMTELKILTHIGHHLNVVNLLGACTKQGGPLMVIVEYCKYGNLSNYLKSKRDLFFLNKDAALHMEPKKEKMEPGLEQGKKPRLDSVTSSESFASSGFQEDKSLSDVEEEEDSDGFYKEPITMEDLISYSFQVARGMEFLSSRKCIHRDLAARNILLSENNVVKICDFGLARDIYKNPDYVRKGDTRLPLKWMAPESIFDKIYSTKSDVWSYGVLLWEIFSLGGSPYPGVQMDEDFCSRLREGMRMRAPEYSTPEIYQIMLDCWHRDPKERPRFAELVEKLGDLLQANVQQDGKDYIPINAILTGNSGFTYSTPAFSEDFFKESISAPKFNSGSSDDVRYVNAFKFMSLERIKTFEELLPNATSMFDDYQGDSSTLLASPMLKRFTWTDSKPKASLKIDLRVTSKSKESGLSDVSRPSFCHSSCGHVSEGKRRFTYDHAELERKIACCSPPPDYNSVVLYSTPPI

[11] = DRUGMATRIX: Phosphodiesterase PDE3 enzyme inhibition (substrate: [3H]cAMP + cAMP); type: tissue-based, Homo sapiens; conditions: platelet; Not Active = under 50% inhibition at 10 µM
[12] = biological target: Aldo-keto reductase family 1 member B1 (Rattus norvegicus, UniProt P07943); type: tissue-based, Lens of camera-type eye
[13] = biological target: Protein kinase C alpha type (Homo sapiens, UniProt P17252); type: cell-based; conditions: sf9
Leukotriene C4 synthase = biological target: T5, Leukotriene C4 synthase (Cavia porcellus, UniProt A6XA80); test: biochemical; type: tissue-based, Lung
T5 sequence (A6XA80 whole entry): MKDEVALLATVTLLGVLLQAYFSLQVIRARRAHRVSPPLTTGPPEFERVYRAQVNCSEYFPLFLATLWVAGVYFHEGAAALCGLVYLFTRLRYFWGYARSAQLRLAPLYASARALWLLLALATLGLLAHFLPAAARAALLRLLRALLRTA

Chain of Tyrosine-protein kinase Fyn (P06241 whole entry): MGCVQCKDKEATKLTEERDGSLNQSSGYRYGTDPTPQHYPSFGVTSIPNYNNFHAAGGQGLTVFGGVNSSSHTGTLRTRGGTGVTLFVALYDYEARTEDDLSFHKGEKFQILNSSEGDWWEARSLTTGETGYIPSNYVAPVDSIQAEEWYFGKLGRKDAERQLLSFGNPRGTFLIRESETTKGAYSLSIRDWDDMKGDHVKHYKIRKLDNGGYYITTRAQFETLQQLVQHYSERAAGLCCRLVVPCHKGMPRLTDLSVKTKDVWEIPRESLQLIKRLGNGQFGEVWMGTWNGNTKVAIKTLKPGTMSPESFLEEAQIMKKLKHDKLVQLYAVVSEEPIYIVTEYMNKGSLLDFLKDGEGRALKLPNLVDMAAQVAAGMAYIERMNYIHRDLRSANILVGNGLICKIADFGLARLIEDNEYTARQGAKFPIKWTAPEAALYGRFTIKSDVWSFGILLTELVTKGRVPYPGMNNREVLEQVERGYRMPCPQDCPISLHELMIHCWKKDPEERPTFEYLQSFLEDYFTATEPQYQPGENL

Structure (SMILES): O=C1c2c(O)ccc(O)c2C(=O)c2c(NCCNCCO)ccc(NCCNCCO)c21 [MITOXANTRONE]
- IC50 ([1]; read-out: IC50): 1.26 µM
- IC50 [2]: Not Active
- IC50 [3]: Not Active
- Ki [3]: Not Active
- IC50 [4]: Not Active
- IC50 [5]: Not Active
- IC50 (Melanocortin receptor 3): Not Active
- IC50 (Adenosine receptor A3): Not Active
- IC50 [6]: Not Active
- Ki [6]: Not Active
- IC50 [7]: Not Active
- IC50 [8]: Not Active
- IC50 [9]: Not Active
- Ki [9]: Not Active
- IC50 (Carbonic anhydrase 2): Not Active
- IC50 [10]: Not Active
- IC50 [11]: Not Active
- Ki [11]: Not Active
- IC50 [12]: Not Active
- IC50 [13]: Not Active
- IC50 (Leukotriene C4 synthase): Not Active

Structure (SMILES): COc1c(C)c2c(c(O)c1C/C=C(\C)CCC(=O)OCCN1CCOCC1)C(=O)OC2 [MYCOPHENOLATE MOFETIL]
- IC50 ([1]; insect cells): Not Active
- IC50 [2]: Not Active
- IC50 [3]: Not Active
- Ki [3]: Not Active
- IC50 [4]: Not Active
- IC50 [5]: Not Active
- IC50 (Melanocortin receptor 3): Not Active
- IC50 (Adenosine receptor A3): Not Active
- IC50 [6]: Not Active
- Ki [6]: Not Active
- IC50 [7]: Not Active
- IC50 [8]: Not Active
- IC50 [9]: Not Active
- Ki [9]: Not Active
- IC50 (Carbonic anhydrase 2): Not Active
- IC50 [10]: Not Active
- IC50 [11]: Not Active
- Ki [11]: Not Active
- IC50 [12]: Not Active
- IC50 [13]: Not Active
- IC50 (Leukotriene C4 synthase): Not Active

Structure (SMILES): CC(=O)[C@H]1CC[C@H]2[C@@H]3CCC4=CC(=O)CC[C@]4(C)[C@H]3CC[C@]12C [PROGESTERONE]
- IC50 ([1]; insect cells): Not Active
- IC50 [2]: Not Active
- IC50 ([3]; read-out: IC50): 24.9 µM
- Ki ([3]; read-out: Ki): 22.3 µM
- IC50 [4]: Not Active
- IC50 [5]: Not Active
- IC50 (Melanocortin receptor 3): Not Active
- IC50 (Adenosine receptor A3): Not Active
- IC50 [6]: Not Active
- Ki [6]: Not Active
- IC50 [7]: Not Active
- IC50 [8]: Not Active
- IC50 [9]: Not Active
- Ki [9]: Not Active
- IC50 (Carbonic anhydrase 2): Not Active
- IC50 [10]: Not Active
- IC50 [11]: Not Active
- Ki [11]: Not Active
- IC50 [12]: Not Active
- IC50 [13]: Not Active
- IC50 (Leukotriene C4 synthase): Not Active
